The subject of test [1] is Wnt stimulated TCF transcriptional activity. The experiment in a line: Tankyrase 1 Assay (Example 72): HEK293-TS 112 TCF reporter cell line. It counts as cell-based. Particulars: footnote 2: Tankyrase 1 inhibition assay in Example 72 (TOPbrite luciferase reporter, Wnt3A 0.5 ug/mL, 16 hours); read-out: TNKS1 IC50. As for the experimental part:
Inhibition of the Wnt stimulated TCF transcriptional activity by tankyrase inhibitors was determined utilizing a HEK293-TS 112 TCF reporter cell line. A Wnt-responsive luciferase reporter named TOPbrite was constructed by cloning the enhancer element of Super8xTOPFlash containing eight TCF/LEF binding sites into the pGL4.28 vector (Promega) upstream of the minimal promoter element, and selecting for hygromycin B resistance (50 μg/ml). Cells were seeded into 384-well plates in the presence of 0.5 ug/mL of Wnt3A at a density of 20,000 cells per well in 25 ul of F:12 DMEM media supplemented with 10% FBS and 2 mM Glutamax. Cells seeded without the addition of Wnt3A were used as background signal. Compounds of various concentrations were added to cells and incubated at 37 degrees with 5% CO2 for 16 hours. The assay was terminated with the addition of Promega Dual Glo kit per manufacturer's instructions. A ratio of TOPbrite Firefly Luciferase and SV40 Renillla Luciferase was calculated and the background from the neutral wells was subtracted yielding the final normalized measurement of TCF transcriptional activity. Compound IC50s were determined by four-parameter curve fitting using GeneData software.

Test [2] deals with T1, PARP1 (His6-PARP1, full length) (Homo sapiens, UniProt P09874).
T1 construct: His6-PARP1 (full length) can be substituted for His6-TNKS 1
T1 sequence (P09874 whole entry, species assumed): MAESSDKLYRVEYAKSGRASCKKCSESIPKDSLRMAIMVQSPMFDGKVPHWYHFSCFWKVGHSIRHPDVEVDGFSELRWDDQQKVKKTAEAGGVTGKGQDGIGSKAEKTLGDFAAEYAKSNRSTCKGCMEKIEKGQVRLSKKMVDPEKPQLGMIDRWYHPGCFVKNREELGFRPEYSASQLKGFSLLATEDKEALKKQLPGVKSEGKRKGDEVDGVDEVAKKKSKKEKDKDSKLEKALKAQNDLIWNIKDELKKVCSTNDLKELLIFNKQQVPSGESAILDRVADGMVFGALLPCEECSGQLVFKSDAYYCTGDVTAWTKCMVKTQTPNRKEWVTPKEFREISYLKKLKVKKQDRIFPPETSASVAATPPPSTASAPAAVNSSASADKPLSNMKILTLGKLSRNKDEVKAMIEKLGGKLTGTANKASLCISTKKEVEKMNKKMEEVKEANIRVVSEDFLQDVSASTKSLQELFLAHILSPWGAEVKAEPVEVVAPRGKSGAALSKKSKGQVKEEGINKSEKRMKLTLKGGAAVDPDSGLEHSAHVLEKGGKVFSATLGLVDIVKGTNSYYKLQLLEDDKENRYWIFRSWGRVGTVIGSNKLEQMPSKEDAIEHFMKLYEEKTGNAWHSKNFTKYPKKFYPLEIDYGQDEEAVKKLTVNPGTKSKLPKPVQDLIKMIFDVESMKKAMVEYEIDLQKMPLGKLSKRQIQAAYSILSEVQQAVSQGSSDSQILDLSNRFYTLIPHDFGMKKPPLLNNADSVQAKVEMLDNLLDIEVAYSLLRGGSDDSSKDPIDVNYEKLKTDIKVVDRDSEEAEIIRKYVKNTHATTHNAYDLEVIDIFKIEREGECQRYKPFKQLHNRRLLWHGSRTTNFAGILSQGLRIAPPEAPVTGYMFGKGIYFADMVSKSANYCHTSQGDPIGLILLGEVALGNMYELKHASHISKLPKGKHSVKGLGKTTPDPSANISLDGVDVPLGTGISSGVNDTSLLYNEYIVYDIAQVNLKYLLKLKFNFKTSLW
The experiment in a line: TR-FRET Binding Assay (Example 71), PARP1. The note with it: TR-FRET assay of Example 71 with His6-PARP1. The procedure, abridged: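 Competition binding: test compound displaces biotin-IWR2 from His6-PARP1 (full length), read by Eu-streptavidin/APC-anti-His6 TR-FRET. PARP1 30 min at 26°C with compound and probe in Tris pH 7.4 buffer with DTT, BSA and NP-40, then detection reagents for 60 min. Excitation 330 nm, emission 615 and 665 nm; […].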

The next test deals with T2, tankyrase 2 (His6-TNKS2) (Homo sapiens, UniProt Q9H2K2).
T2 construct: His6-tankyrase 2 (construct: 934-1166) (His6-TNKS2)
T2 sequence (Q9H2K2 934-1166): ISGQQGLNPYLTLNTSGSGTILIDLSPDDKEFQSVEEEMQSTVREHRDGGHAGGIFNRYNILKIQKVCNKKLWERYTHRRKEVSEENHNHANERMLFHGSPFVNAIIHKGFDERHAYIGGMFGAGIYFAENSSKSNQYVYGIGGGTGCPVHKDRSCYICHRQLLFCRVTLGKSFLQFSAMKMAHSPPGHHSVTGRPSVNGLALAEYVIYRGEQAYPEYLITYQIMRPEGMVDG
The test is described as follows: μHTS-TNKS-IWR2 TR-FRET Binding Assay (Example 71), TNKS2. The note with it: footnote 1: Tankyrase 1 and 2 inhibition assay in Example 71 (TR-FRET).

For a further test, the target named is T3, Tankyrase 1 (TNKS1) (Homo sapiens, UniProt O95271).
T3 construct: His6-TNKS1, MW=28.2 KDa (construct: 1088-1327, 1266M)
T3 sequence (O95271 1088-1327): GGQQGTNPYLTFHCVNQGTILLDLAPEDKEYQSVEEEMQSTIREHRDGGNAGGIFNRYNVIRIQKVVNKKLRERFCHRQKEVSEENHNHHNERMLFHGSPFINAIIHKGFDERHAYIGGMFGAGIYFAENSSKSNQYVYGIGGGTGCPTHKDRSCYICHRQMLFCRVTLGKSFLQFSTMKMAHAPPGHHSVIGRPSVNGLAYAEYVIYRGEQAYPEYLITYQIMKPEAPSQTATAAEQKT
The test is described as follows: μHTS-TNKS-IWR2 TR-FRET Binding Assay (Example 71), TNKS1.

Regarding `Cc1cccc2c(=O)[nH]c3c(c12)COC(C(C)(C)CO)C3` (racemic) [Compound I-1, rac-2-(2-Hydroxy-1,1-dimethyl-ethyl)-5-methyl-1,2,4,10-tetrahydro-3-oxa-10-aza-phenanthren-9-one], the half-maximal inhibitory concentration (IC50) in test [1] came out at 10.6 nM; in test [2], 91.8 nM.

With `COCCN1CCC(C2Cc3[nH]c(=O)c4cccc(C)c4c3CO2)CC1` (stereo not shown) [Compound I-73, 3-[1-(2-methoxyethyl)-4-piperidyl]-10-methyl-1 3 4 5-tetrahydropyrano[4,3-c]isoquinolin-6-one], the IC50 in test [1] was determined as 29.4 nM.

Take `Cc1cccc2c(=O)[nH]c3c(c12)COC(C1CCN(C2COC2)CC1)C3` (stereo not shown) [Compound I-71, 10-methyl-3-[1-(oxetan-3-yl)-4-piperidyl]-1 3 4 5-tetrahydropyrano[4,3-c]isoquinolin-6-one]: in test [1], the half-inhibitory concentration (IC50) amounted to 2.01 nM.

As for `Cc1cccc2c(=O)[nH]c3c(c12)COC(C1CCN(C2CCOCC2)CC1)C3` (stereo not shown) [Compound I-72, 10-Methyl-3-(1-tetrahydropyran-4-yl-4-piperidyl)-1 3 4 5-tetrahydropyrano[4,3-c]isoquinolin-6-one], in test [1], the IC50 stood at 92.4 nM.

As to `Cc1cccc2c(=O)[nH]c3c(c12)COC(CC(C)O)C3` (stereo not shown) [Compound I-76, 3-(2-hydroxypropyl)-10-methyl-1 3 4 5-tetrahydropyrano[4,3-c]isoquinolin-6-one], the IC50 in test [1] came out at 15.9 nM.

Regarding `Cc1cccc2c(=O)[nH]c3c(c12)COC(C1CCN(CCO)CC1)C3` (stereo not shown) [Compound I-75, 3-[1-(2-hydroxyethyl)-4-piperidyl]-10-methyl-1 3 4 5-tetrahydropyrano[4,3-c]isoquinolin-6-one], the IC50 in test [1] was 27.2 nM.

As for `CC(C)C1Cc2[nH]c(=O)c3cccc(Cl)c3c2CO1` (stereo not shown) [Compound I-70, 10-chloro-3-isopropyl-1 3 4 5-tetrahydropyrano[4,3-c]isoquinolin-6-one], the IC50 in test [1] amounted to 12.9 nM.

In the case of `CC(C)C1Cc2[nH]c(=O)c3cccc(F)c3c2CO1` (stereo not shown) [Compound I-69, 10-Fluoro-3-isopropyl-1 3 4 5-tetrahydropyrano[4,3-c]isoquinolin-6-one], in test [1], the IC50 is 11.2 nM.

Regarding `CC(C)(C)C1Cc2[nH]c(=O)c3ccc(C#N)cc3c2CO1` (racemic) [Compound I-56, rac-2-tert-Butyl-9-oxo-1,4,9,10-tetrahydro-2H-3-oxa-10-aza-phenanthrene-6-carbonitrile], the values for the IC50 (on tankyrase 2 (His6-TNKS2); at Tankyrase 1 (TNKS1); in test [2]) were 1500 nM, 133 nM and more than 50000 nM, respectively.

On to `CC(C)C1Cc2[nH]c(=O)c3ccoc3c2CO1` (racemic) [Compound I-10, rac-7-Isopropyl-5,6,7,9-tetrahydro-1,8-dioxa-5-aza-cyclopenta[a]naphthalen-4-one], for which the IC50 was found to be 231 nM on tankyrase 2 (His6-TNKS2), 93.7 nM on Tankyrase 1 (TNKS1) and 80.1 nM in test [2].

Consider `O=c1[nH]c2c(c3ccccc13)COC1(CCCC1)C2` [Compound I-9, 1,5′-Dihydrospiro[cyclopentane-1,3′-pyrano[4,3-c]isoquinolin]-6′(4′H)-one], for which the 50% inhibitory concentration (IC50) at tankyrase 2 (His6-TNKS2) stood at 144 nM; on Tankyrase 1 (TNKS1), 72.9 nM; in test [2], 2270 nM.

Consider `CCC(C)C1Cc2[nH]c(=O)c3ccccc3c2CO1` (stereo not shown) [Compound I-18, 2-sec-Butyl-1,2,4,10-tetrahydro-3-oxa-10-aza-phenanthren-9-one], for which the IC50 at tankyrase 2 (His6-TNKS2) is 88.3 nM; on Tankyrase 1 (TNKS1), 56.8 nM; in test [2], more than 50000 nM.

As for `CC1(C2Cc3[nH]c(=O)c4ccccc4c3CO2)CCCCC1` (racemic) [Compound I-20, rac-2-(1-Methyl-cyclohexyl)-1,2,4,10-tetrahydro-3-oxa-10-aza-phenanthren-9-one], the results for the IC50 (at tankyrase 2 (His6-TNKS2); at Tankyrase 1 (TNKS1); in test [2]) were 30.5 nM, 25.5 nM and 61.1 nM, respectively.

For `Cc1cccc2c(=O)[nH]c3c(c12)COC(C1CCN(S(=O)(=O)C2CCOCC2)CC1)C3` (stereo not shown) [Compound I-74, 10-methyl-3-(1-tetrahydropyran-4-ylsulfonyl-4-piperidyl)-1 3 4 5-tetrahydropyrano[4,3-c]isoquinolin-6-one], the IC50 in test [1] is 9.5 nM.

Turning to `O=C(C1CC1)N1CCC(C2Cc3[nH]c(=O)c4ccccc4c3CO2)CC1` (racemic) [Compound I-33, rac-2-(1-Cyclopropanecarbonyl-piperidin-4-yl)-1,2,4,10-tetrahydro-3-oxa-10-aza-phenanthren-9-one], the IC50 was 52 nM on tankyrase 2 (His6-TNKS2), 36.5 nM at Tankyrase 1 (TNKS1) and 94.8 nM in test [2].

For the compound `CC(C)(C)OC(=O)N1CCC(C2Cc3[nH]c(=O)c4ccccc4c3CO2)C1` (stereo not shown) [Compound I-35, 3-(9-Oxo-1,4,9,10-tetrahydro-2H-3-oxa-10-aza-phenanthren-2-yl)-pyrrolidine-1-carboxylic acid tert-butyl ester], the IC50 came to 56 nM at tankyrase 2 (His6-TNKS2), 37.9 nM at Tankyrase 1 (TNKS1) and 69.9 nM in test [2].

For the compound `CC(C)(C)OC(=O)N1CCC([C@H]2Cc3[nH]c(=O)c4ccccc4c3CO2)CC1` (single isomer, unassigned) [Compound I-55], the IC50 at tankyrase 2 (His6-TNKS2) came to 99.2 nM; at Tankyrase 1 (TNKS1), 43.2 nM; in test [2], 125 nM.

Regarding `Cc1cccc2c(=O)[nH]c3c(c12)COC(C(C)(C)COCc1ccccc1)C3` (stereo not shown) [Compound I-68, 3-(2-benzyloxy-1 1-dimethyl-ethyl)-10-methyl-1 3 4 5-tetrahydropyrano[4 3-c]isoquinolin-6-one], the concentration for half-maximal inhibition (IC50) was found to be 28.7 nM on tankyrase 2 (His6-TNKS2), 28 nM on Tankyrase 1 (TNKS1) and 26 nM in test [2].

Values taken from patent US20140121231A1, “PYRANOPYRIDONE INHIBITORS OF TANKYRASE” (Hoffmann-La Roche, Inc., priority 2012, published 2014).
